Data from publication PMC5924788 (Frontiers in Chemistry, 2018).
Where two headings read alike, the source gives them in different places. Marks after values point to notes of the source that are not given here.

What was measured:
[1] = mean ± SD; ref Teixeira et al. ([2017a]); cited from earlier work
BChE [2] = target: T1, BChE (Homo sapiens, UniProt P06276); assay: biochemical
T1 construct: purchased Sigma-Aldrich Química S. A
Source text: (§1) Acetylcholinesterase (AChE) from Electrophorus electricus (electric eel), butyrylcholinesterase (BChE) and acetylthiocholine iodide (ATCI), butyrylthiocholine iodide (BTCI), 5,5′-dithiobis-(2-nitrobenzoate) (DTNB), (4,5-dimethylthiazol-2-yl)-2,5-diphenyl tetrazolium (MTT) bromide and Dulbecco's modified Eagle's medium (DMEM) with 4.5 g/L glucose were obtained from Sigma-Aldrich Química S. A. Reagents used in cell culture, including nonessential amino acids (NEAA), heat inactivated fetal bovine serum (FBS), 0.05% trypsin/1 mM EDTA, antibiotic (10000 U/mL penicillin, 10,000 μg/mL streptomycin) and Hank's balanced salt solution (HBSS) were purchased from Gibco Laboratories. Dimethylsulfoxide (DMSO-d6), absolute ethanol and acetic acid were obtained from Merck. All reagents were of analytical grade or of the highest grade available.
(§2) Briefly, 100 μL of sodium phosphate buffer, 40 μL of DTNB, 20 μL of the test compounds/standard inhibitors and 20 μL of AChE or BChE were incubated for 5 min at 30°C in a 96-well microplate (BRANDplates, pureGradeTM, BRAND GMBH, Wertheim, Germany). After that, 20 μL of ATCI or BTCI was added, respectively. […] A control using 20 μL of sodium phosphate buffer instead of compound solution was also performed. The IC50 values were determined in triplicate from the dose-response inhibition curves and are expressed as mean ± standard deviation (SD).
(§3) ATCI and BTCI were used as substrates for AChE or BChE, respectively, generating thiocholine and acetate or butyrate.

[3] = mean ± SD; ref Teixeira et al. ([2017a]); cited from earlier work; remark: listed apart in the source
SH-SY5Y cells [4] = assay: Neuroprotection against Aβ1–42 peptide-induced cytotoxicity (resazurin reduction); details: for neuroprotective effect against Aβ1–42 peptide-induced cytotoxicity: 10 μM pre-treatment 24 h, then Aβ1–42 25 μM 48 h
Procedure: The antioxidant efficiency of the new HBAc derivatives was evaluated in the presence of Aβ1–42 peptide. […] Aβ1–42 aliquots were then stored at −20°C until use (enriched oligomeric Aβ1–42 preparation).
Undifferentiated SH-SY5Y cells were seeded onto 96-well plates (8000 cells/well) and differentiated as previously described. […] After incubation time, cellular metabolic activity was determined using the resazurin reduction assay as previously described.
Aβ aggregation, the pathological hallmark of AD, is the most targeted biomarker in drug discovery and development for AD.

SH-SY5Y cells [5] = assay: Cytotoxicity in differentiated SH-SY5Y cells (MTT reduction); format: cell-based, human; details: 24 h; for cellular metabolic activity (MTT reduction), cytotoxicity: differentiated SH-SY5Y, 1, 10 and 50 μM
Procedure: SH-SY5Y (ATCC, Manassas, VA, USA), a neuroblastoma cell line, was routinely cultured in 75-cm^2 flasks (Corning Costar, Corning, NY, USA) using DMEM with 4.5 g/L glucose, supplemented with 10% heat-inactivated FBS (v/v), 1% NEAA (v/v), 100 U/mL penicillin, and 100 μg/mL streptomycin. The cells used for all the experiments were taken between the 37th and 45th passages, to avoid phenotypic changes. […] Three days after seeding, the medium of cells was changed, adding cell culture medium with 0.1% of TPA for more 3 days before treatment.
(§4) The cytotoxicity profile of the compounds under study was evaluated in differentiated SH-SY5Y cells (8,000 cells/well), according the differentiation protocol previously described, and in HepG2 cells (2.5 × 10^4 cells/well), seeded into 96-well plates. […]. In both assays, the reduction of MTT tetrazolium salt or resazurin to MTT formazan or resorufin, respectively, by cellular dehydrogenases present in viable cells, gives insights on cell metabolic activity.
For the MTT assay, the cell culture medium was removed after the incubation time, followed by the addition of fresh cell culture medium containing 0.5 mg/mL MTT and incubation for 30 min. After this incubation period, the cell culture medium was removed, and the formed formazan crystals dissolved in DMSO. The absorbance was measured at 550 nm in a multi-well plate reader (BioTek Instruments, Vermont, USA). The percentage of MTT reduction relative to that of the control cells was used as the cytotoxicity measure [MTT reduction (% of control)] as means ± SEM of four independent experiments.

HepG2 cells = assay: Cytotoxicity in HepG2 cells (resazurin reduction); format: cell-based, human; details: 48 h; for cellular metabolic activity (resazurin reduction), cytotoxicity: HepG2, 1, 10 and 50 μM
Procedure: Human hepatocellular carcinoma cells (HepG2, ECACC, UK) were also used in this study. Cells were cultured in low-glucose medium (5 mM) composed by Dulbecco's modified Eagle's medium (DMEM, D5030) supplemented with sodium pyruvate (0.11 g/L), sodium bicarbonate (3.7 g/L), HEPES (1.19 g/L), 6 mM glutamine and 10% fetal bovine serum (FBS) and 1% of antibiotic penicillin-streptomycin 100 × solution. HepG2 (2.5 × 10^4 cells/well) cells were seeded in a 96-well plate and proliferate for 24 h before treatment.
as §4
Regarding the resazurin reduction assay, after the incubation time, the medium was replaced by fresh medium containing resazurin (10 μg/mL) prepared in sterile PBS (1X) and left to react for 1 h. The fluorescent signal was monitored using a 540 nm excitation wavelength and 590 nm emission wavelength in a Cytation 3 reader (BioTek Instruments Inc., USA). The percentage of resazurin reduction relative to that of the control cells was used as the cytotoxicity measure [resazurin reduction (% of control)] as means ± SEM of four independent experiments.

[6] = ref Teixeira et al. ([2017a]); cited from earlier work
AChE [7] = target: T2, AChE (Electrophorus electricus, UniProt O42275); assay: AChE inhibition, Ellman's method; format: biochemical, Electrophorus electricus (electric eel)
T2 construct: purchased Sigma-Aldrich Química S. A
T2 sequence (O42275 24-633): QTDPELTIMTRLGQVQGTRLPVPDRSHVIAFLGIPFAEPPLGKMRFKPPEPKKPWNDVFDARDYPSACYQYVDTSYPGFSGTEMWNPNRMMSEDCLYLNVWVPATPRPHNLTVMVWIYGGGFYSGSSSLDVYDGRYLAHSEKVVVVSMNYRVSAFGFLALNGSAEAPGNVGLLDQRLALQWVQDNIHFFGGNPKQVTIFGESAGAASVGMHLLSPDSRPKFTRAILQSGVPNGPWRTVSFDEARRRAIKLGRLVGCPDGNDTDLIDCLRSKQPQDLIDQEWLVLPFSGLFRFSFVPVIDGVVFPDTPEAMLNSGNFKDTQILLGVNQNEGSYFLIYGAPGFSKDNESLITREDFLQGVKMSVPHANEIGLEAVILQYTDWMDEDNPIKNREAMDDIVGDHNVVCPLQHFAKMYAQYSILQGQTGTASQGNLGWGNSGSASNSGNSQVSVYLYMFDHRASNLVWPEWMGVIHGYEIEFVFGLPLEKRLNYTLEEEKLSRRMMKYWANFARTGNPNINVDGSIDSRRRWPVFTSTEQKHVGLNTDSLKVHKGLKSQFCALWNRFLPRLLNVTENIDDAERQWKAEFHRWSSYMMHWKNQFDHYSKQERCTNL
Source text: as §1, §2, §3

AChE [8] = target: T2, AChE; assay: AChE-inhibitor kinetics (Lineweaver-Burk and Dixon plots); format: biochemical, Electrophorus electricus (electric eel)
Procedure: (§5) To evaluate the mechanism of AChE and BChE inhibition of the most promising compounds substrate-dependent kinetic experiments were performed. […] The results are presented as double reciprocal Lineweaver-Burk plots (1/V vs. 1/[S]). The kinetic data, namely Km and Vmax, were acquired employing Michaelis-Menten equation. The Ki values were estimated using Dixon plots, by replotting the slope of each Lineweaver-Burk plot vs. the inhibitor concentration. In the Dixon plots, the Ki value was obtained from the x-axis intercept (–Ki). The enzymatic reactions and measurements were performed using the same AChE and BChE assay conditions as described above (determined in triplicate). Linear regression analysis was performed using GraphPad Prism 5.0 (GraphPad Software, Inc.).
(§6) In order to understand the AChE and BChE inhibitory mechanism of the most promising ChE inhibitors, kinetic experiments were performed. […] Graphical analysis of the reciprocal Lineweaver–Burk plots was used to determine Michaelis-Menten reaction kinetic parameters (Km and Vmax).

[9] = Redox properties by differential pulse and cyclic voltammetry; format: physicochemical; details: physiological pH 7.4, differential pulse voltammetry, glassy carbon electrode
Procedure: Voltammetric studies were performed using an Autolab PGSTAT12 potentiostat/galvanostat (Metrohm Autolab, Netherland) and a one-compartment glass electrochemical cell.

[10] = DPPH radical scavenging assay; details: mean ± SD, triplicate
Procedure: (§7) The IC50 values were determined in triplicate from the dose-response inhibition curves and are expressed as mean ± standard deviation (SD).

[11] = ABTS radical cation scavenging assay; details: mean ± SD, triplicate
Procedure: as §7

BChE [12] = target: T1, BChE; assay: BChE-inhibitor kinetics (Lineweaver-Burk and Dixon plots); format: biochemical
Procedure: as §5, §6

[13] = mean ± SD, triplicate, 30°C, read-out: IC50 BChE
[14] = Lineweaver-Burk plots, Vmax decreased, Km unchanged

T1 sequence (P06276 29-602, species assumed): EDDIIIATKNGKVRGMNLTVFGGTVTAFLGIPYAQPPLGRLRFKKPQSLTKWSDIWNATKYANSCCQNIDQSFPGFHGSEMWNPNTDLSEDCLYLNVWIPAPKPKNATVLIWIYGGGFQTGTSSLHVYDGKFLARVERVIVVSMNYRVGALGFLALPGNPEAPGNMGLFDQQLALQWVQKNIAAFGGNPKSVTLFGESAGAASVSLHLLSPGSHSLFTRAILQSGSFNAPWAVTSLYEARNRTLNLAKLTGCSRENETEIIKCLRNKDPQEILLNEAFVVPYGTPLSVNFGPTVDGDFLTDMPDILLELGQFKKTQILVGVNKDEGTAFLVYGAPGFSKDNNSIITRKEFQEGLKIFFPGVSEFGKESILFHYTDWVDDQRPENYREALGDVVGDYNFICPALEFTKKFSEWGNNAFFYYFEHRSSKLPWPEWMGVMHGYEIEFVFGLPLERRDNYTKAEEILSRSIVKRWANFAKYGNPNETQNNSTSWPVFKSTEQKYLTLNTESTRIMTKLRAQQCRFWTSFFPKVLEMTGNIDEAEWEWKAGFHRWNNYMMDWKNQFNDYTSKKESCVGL

Compound	SI: BChE selectivity index = IC50(AChE)/IC50(BChE) (BChE [2])	neuroprotective effect against Aβ1–42 peptide-induced cytotoxicity (SH-SY5Y cells [4])	cellular metabolic activity (MTT reduction), cytotoxicity (SH-SY5Y cells [5])	cellular metabolic activity (resazurin reduction), cytotoxicity (HepG2 cells)	IC50 (AChE [7]) [µM]	IC50 (BChE [2]) [µM]	Ep (oxidation potential) [9] [mV]	IC50 [10] [µM]	IC50 [11] [µM]	further results
O=C(NCCCCCC[P+](c1ccccc1)(c1ccccc1)c1ccccc1)c1cc(O)c(O)c(O)c1 [AntiOxBEN2]	86	more evident	did not alter cellular metabolic activity	did not alter cellular metabolic activity	40.5 ± 7	–	–	–	–	IC50 [1]: 6.5 ± 0.5 µM; IC50 (BChE [2]; [13]): 0.474 ± 0.017 µM; IC50 [3]: 14 ± 0.3 µM; Ep (oxidation potential) [6]: 115^* mV
O=C(NCCCCCCCCCC[P+](c1ccccc1)(c1ccccc1)c1ccccc1)c1cc(O)c(O)c(O)c1.[Br-] [Compound 18, (10-(3,4,5-Trihydroxybenzamido)decyl)triphenylphosphonium bromide]	13	significantly prevented Aβ1–42 peptide-induced dysfunction/cell death	did not alter cellular metabolic activity	did not alter cellular metabolic activity	7.2 ± 0.5	0.553 ± 0.022	114	10.2 ± 1.1	7.4 ± 0.5	Ki (AChE [8]): 6.6 µM; AChE inhibition mechanism (AChE [8]; [14]): non-competitive; cellular metabolic activity (MTT reduction) (SH-SY5Y cells [5]; SH-SY5Y, 1 and 10 μM): slightly increased; cellular metabolic activity (resazurin reduction) (HepG2 cells; HepG2, 10 and 50 μM): slightly increased
O=C(NCCCCCCCC[P+](c1ccccc1)(c1ccccc1)c1ccccc1)c1ccc(O)c(O)c1.[Br-] [Compound 15, (8-(3,4-Dihydroxybenzamido)octyl)triphenylphosphonium bromide]	106	–	dose-dependent toxicity	dose-dependent toxicity	11.2 ± 0.8	0.106 ± 0.005	216	31.2 ± 0.9	23.5 ± 1.3	–
O=C(NCCCCCC[P+](c1ccccc1)(c1ccccc1)c1ccccc1)c1ccc(O)c(O)c1 [AntiOxBEN1]	> 588	significantly prevented Aβ1–42 peptide-induced dysfunction/cell death	dose-dependent toxicity	dose-dependent toxicity	> 50	–	–	–	–	IC50 [1]: 20.7 ± 0.8 µM; IC50 (BChE [2]; [13]): 0.085 ± 0.005 µM; IC50 [3]: 31 ± 0.8 µM; Ep (oxidation potential) [6]: 219^* mV; Ki (BChE [12]): 0.0295 µM; BChE inhibition mechanism (BChE [12]; [14]): non-competitive; effect on AChE (AChE [7]; at 50 μM): did not have any effect
O=C(NCCCCCCCC[P+](c1ccccc1)(c1ccccc1)c1ccccc1)c1cc(O)c(O)c(O)c1.[Br-] [Compound 16, (8-(3,4,5-Trihydroxybenzamido)octyl)triphenylphosphonium bromide]	62	more evident	did not alter cellular metabolic activity	did not alter cellular metabolic activity	15.7 ± 0.9	0.255 ± 0.009	121	16.8 ± 1.6	6.8 ± 0.6	–
Aβ1–42 [reference compound]	–	–	–	–	–	–	–	–	–	decrease of cell viability compared to control (SH-SY5Y cells [4]; Aβ1–42 peptide 25 μM, 48 h, resazurin): about 28%
O=C(NCCCCCCCCCC[P+](c1ccccc1)(c1ccccc1)c1ccccc1)c1ccc(O)c(O)c1.[Br-] [Compound 17, (10-(3,4-Dihydroxybenzamido)decyl)triphenylphosphonium bromide]	–	more evident	dose-dependent toxicity	dose-dependent toxicity	7.7 ± 0.4	0.195 ± 0.02	210	31 ± 0.6	19.4 ± 1	–
